Data on 4 molecules can be found in ChEMBL document CHEMBL5620415, “Design, synthesis and anti-hepatic fibrosis activity of novel diphenyl vitamin D receptor agonists” (Eur J Med Chem, 2023).

Activity calls are given as the source filed them. The rule behind the calls is not given here.

Data set [1] is described as follows: Cytotoxicity against human LX-2 cells by CCK-8 assay. In kind it is toxicity, cell-based.
The test system of data set [2] is Mus musculus. The data set is described as follows: Anti-fibrotic effect in improving CCl4-induced hepatic fibrosis C57BL/6 mouse model assessed as uniform liver parenchyma at 500 ug/kg, po five times a week for 2 weeks by qualitative ultrasound imaging analysis. The data set is classed as functional, organism-based. The settings on record: dose 500.0 µg/kg.
Data set [3] concerns Mus musculus. The data set is described as follows: Anti-fibrotic effect in CCl4-induced hepatic fibrosis C57BL/6 mouse model assessed as inhibition of proliferation of fibrous tissue at 500 ug/kg, po five times a week for 2 weeks by Hematoxylin-Eosin (H&E) staining based assay. In kind it is functional, organism-based. The following applies: dose 500.0 µg/kg.
Data set [4] concerns Mus musculus. Nature of the data set: Anti-fibrotic effect in CCl4-induced hepatic fibrosis C57BL/6 mouse model assessed as inhibition of serum AST level at 500 ug/kg, po five times a week for 2 weeks. In kind it is functional, organism-based. The following applies: dose 500.0 µg/kg.
The target in data set [5] is T1, Vitamin D3 receptor (Homo sapiens) (UniProt P11473).
T1 sequence (whole entry): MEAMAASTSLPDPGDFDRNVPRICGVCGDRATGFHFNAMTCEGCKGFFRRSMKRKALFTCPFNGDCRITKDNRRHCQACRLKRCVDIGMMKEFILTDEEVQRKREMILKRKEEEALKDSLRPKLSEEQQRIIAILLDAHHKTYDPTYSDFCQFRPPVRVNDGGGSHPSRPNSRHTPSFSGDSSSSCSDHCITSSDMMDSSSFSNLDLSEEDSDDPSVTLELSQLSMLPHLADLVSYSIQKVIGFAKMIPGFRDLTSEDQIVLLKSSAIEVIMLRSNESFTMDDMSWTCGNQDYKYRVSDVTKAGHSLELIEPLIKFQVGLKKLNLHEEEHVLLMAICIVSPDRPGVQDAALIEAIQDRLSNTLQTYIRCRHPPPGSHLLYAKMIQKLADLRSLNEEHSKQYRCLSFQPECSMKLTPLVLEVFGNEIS
The data set is described as follows: Agonist activity at Vitamin D receptor in HEK293 cells assessed as receptor transactivation incubated for 48 hrs by dual-luciferase reporter assay. In kind it is cell-based. The following applies: filed as agonist, dose 0.01-1 µM.

Data set [6] deals with Mus musculus. The data set is described as follows: Anti-fibrotic effect in CCl4-induced hepatic fibrosis C57BL/6 mouse model assessed as decrease in inflammatory cell infiltration at 500 ug/kg, po five times a week for 2 weeks by Hematoxylin-Eosin (H&E) staining based assay. The data set is classed as functional, organism-based. The following applies: dose 500.0 µg/kg.
In data set [7] the target is T1, Vitamin D3 receptor (Homo sapiens). The data set is described as follows: Agonist activity at Vitamin D receptor in human LX-2 cells assessed as transcriptional activity by measuring induction of CYP24A expression at 0.5 uM by RT-qPCR analysis relative to control. In kind it is cell-based. The following applies: filed as agonist. In general terms: Quantitative PCR measures a nucleic acid by following its amplification.

Data set [8] concerns LX-2. Nature of the data set: Inhibition of TGF-beta1 induced human LX-2 cell activation assessed as inhibition of collagen I expression at 0.5 uM by Western blot analysis relative to control. In kind it is functional, cell-based. Background: In western blotting, separated proteins are transferred to a membrane and probed.
The target of data set [9] is T1, Vitamin D3 receptor (Homo sapiens). The data set is described as follows: Binding affinity to human full-length Vitamin D receptor assessed as relative binding affinity at 1 uM incubated for 2 hrs by fluorescence polarization based competitive binding assay relative to calcipotriol. The following applies: filed as agonist. On the technique in general: Fluorescence polarisation rises when a labelled molecule tumbles more slowly, as on binding a larger partner.

In data set [10] the test system is Mus musculus. Nature of the data set: Anti-fibrotic effect in CCl4-induced hepatic fibrosis C57BL/6 mouse model assessed as inhibition of serum total bile acid (TBA) level at 500 ug/kg, po five times a week for 2 weeks. The settings on record: dose 500.0 µg/kg. In kind it is functional, organism-based.
Data set [11] deals with Mus musculus. The data set is described as follows: Anti-fibrotic effect in CCl4-induced hepatic fibrosis C57BL/6 mouse model assessed as decrease in inflammatory cell infiltration at 500 ug/kg, po five times a week for 2 weeks by Masson's Trichrome staining based assay. The following applies: dose 500.0 µg/kg. In kind it is functional, organism-based.
Data set [12] concerns Mus musculus. Nature of the data set: Anti-fibrotic effect in CCl4-induced hepatic fibrosis C57BL/6 mouse model assessed as reduction the lesions at 500 ug/kg, po five times a week for 2 weeks by Masson's Trichrome staining based assay. The data set is classed as functional, organism-based. The settings on record: dose 500.0 µg/kg.
Data set [13] concerns Mus musculus. Nature of the data set: Anti-fibrotic effect in CCl4-induced hepatic fibrosis C57BL/6 mouse model assessed as inhibition of proliferation of fibrous tissue at 500 ug/kg, po five times a week for 2 weeks by Masson's Trichrome […] staining based assay. The settings on record: dose 500.0 µg/kg. In kind it is functional, organism-based.
The subject of data set [14] is Mus musculus. Nature of the data set: Anti-fibrotic effect in CCl4-induced hepatic fibrosis C57BL/6 mouse model assessed as reduction the lesions at 500 ug/kg, po five times a week for 2 weeks by Hematoxylin-Eosin (H&E) staining based assay. The data set is classed as functional, organism-based. The settings on record: dose 500.0 µg/kg.
In data set [15] the test system is LX-2. Nature of the data set: Inhibition of TGF-beta1 induced human LX-2 cell activation assessed as inhibition of alpha-SMA expression at 0.5 uM by Western blot analysis relative to control. In kind it is functional, cell-based.
The test system of data set [16] is Mus musculus. Nature of the data set: Anti-fibrotic effect in CCl4-induced hepatic fibrosis C57BL/6 mouse model assessed as inhibition of collagen deposition at 500 ug/kg, po five times a week for 2 weeks by Hematoxylin-Eosin (H&E) staining based assay. In kind it is functional, organism-based. The following applies: dose 500.0 µg/kg.
Data set [17] has as its system Mus musculus. Nature of the data set: Anti-fibrotic effect in CCl4-induced hepatic fibrosis C57BL/6 mouse model assessed as reduction in hepatic fibrosis lesions at 500 ug/kg, po five times a week for 2 weeks by Masson's Trichrome staining based assay. In kind it is functional, organism-based. The following applies: dose 500.0 µg/kg.
In data set [18] the test system is Mus musculus. The data set is described as follows: Anti-fibrotic effect in improving CCl4-induced hepatic fibrosis C57BL/6 mouse model assessed as decrease in liver to kidney brightness ratio at 500 ug/kg, po five times a week for 2 weeks by qualitative ultrasound imaging analysis. The data set is classed as functional, organism-based. The following applies: dose 500.0 µg/kg.

The test system of data set [19] is Mus musculus. Nature of the data set: Anti-fibrotic effect in CCl4-induced hepatic fibrosis C57BL/6 mouse model assessed as inhibition of serum ALT level at 500 ug/kg, po five times a week for 2 weeks. In kind it is functional, organism-based. The settings on record: dose 500.0 µg/kg.
Data set [20] deals with Mus musculus. Nature of the data set: Anti-fibrotic effect in CCl4-induced hepatic fibrosis C57BL/6 mouse model assessed as inhibition of collagen deposition at 500 ug/kg, po five times a week for 2 weeks by Masson's Trichrome […] staining based assay. In kind it is functional, organism-based. The settings on record: dose 500.0 µg/kg.
Data set [21] has as its system Mus musculus. The data set is described as follows: Anti-fibrotic effect in CCl4-induced hepatic fibrosis C57BL/6 mouse model assessed as reduction in hepatic fibrosis lesions at 500 ug/kg, po five times a week for 2 weeks by Hematoxylin-Eosin (H&E) staining based assay. The data set is classed as functional, organism-based. The settings on record: dose 500.0 µg/kg.

A short description of data set [22]: Toxicity in CCl4-induced hepatic fibrosis C57BL/6 mouse model assessed as serum hypercalcemia at 100 ug/kg, po five times a week for 2 weeks by calcium assay kit. The data set is classed as organism-based. The following applies: in vivo, 0.1 mg/kg, 336 h, dose 100 µg/kg.

One may read the IC50 as the concentration at which inhibition is half-maximal. For the molecule `CCC(Oc1ccc(CO)c(CO)c1)c1cccc(OCCCC(O)(CC)CC)c1` (stereo not drawn), in [1], the IC50 was above 30 µM. The outcome (in the data set on Mus musculus [2]; with Mus musculus [3]; in the data set on Mus musculus [4]; with Mus musculus [6]; in data set [7]; with Mus musculus [10]) was Active. In addition, the outcome in the data set on Mus musculus [11], in the data set with Mus musculus [12], in the data set with Mus musculus [13], in the data set with Mus musculus [14], in the data set on Mus musculus [16] and in the data set with Mus musculus [17] was Active. The outcome in the data set with Mus musculus [18], in the data set with Mus musculus [19], in the data set with Mus musculus [20] and with Mus musculus [21] was Active. In data set [5], the Activity result is “Dose-Dependent Effect”. The inhibition result in the data set with LX-2 [8] and in the data set on LX-2 [15] was “Active” throughout. Further, the RBA in data set [9] was found to be 54.3%.

For `C=C1/C(=C\C=C2/CCC[C@]3(C)[C@@H]([C@H](C)/C=C/[C@@H](O)C4CC4)CC[C@@H]23)C[C@@H](O)C[C@@H]1O` [CALCIPOTRIENE], the Activity result in data set [22] is “Non-Toxic”.

With `CCn1c(C(=O)N[C@@H](C)CO)ccc1C(CC)(CC)c1ccc(OCC(O)C(C)(C)C)c(C)c1` (stereo partly drawn), the result in the data set with Mus musculus [2], with Mus musculus [3], in the data set on Mus musculus [6], in the data set with Mus musculus [11], with Mus musculus [12] and with Mus musculus [13] was Active. The result in the data set with Mus musculus [14], in the data set on Mus musculus [16], in the data set on Mus musculus [17], in the data set with Mus musculus [18], in the data set with Mus musculus [20] and with Mus musculus [21] was Active.

Turning to `CCC(O)(CC)CCCOc1cccc(/C=C/c2ccc(CO)c(CO)c2)c1`, the IC50 in [1] was above 30 µM. Moreover, the result (with Mus musculus [2]; with Mus musculus [3]; in the data set with Mus musculus [4]; in the data set with Mus musculus [6]; in [7]; in the data set with Mus musculus [10]) was Active. For the same molecule, the outcome in the data set on Mus musculus [11], in the data set with Mus musculus [12], with Mus musculus [13], with Mus musculus [14], with Mus musculus [16] and in the data set with Mus musculus [17] was Active. The outcome in the data set with Mus musculus [18], in the data set on Mus musculus [19], in the data set on Mus musculus [20] and with Mus musculus [21] was Active. Besides, the Activity entry in data set [5] is “Dose-Dependent Effect”. In addition, the RBA in [9] is 48%.
